Results as given in patent publication US20070036793A1, “Methods for use of an lkb1/strad7mo25 complex” (priority 2003, published 2007).
“Also recorded” adds a separate entry of the source.

Key:
[1] = test system: acetyl-CoA carboxylase (ACC); assay: Phosphorylation of acetyl-CoA carboxylase at Ser-79 in HeLa cells expressing LKB1; assay type: cell-based, human; details: HeLa cells stably expressing wild type LKB1; 2 mM AICA riboside or 10 mM phenformin, 60 min
Description: FIG. 18: Restoration of the ability of AMPK to be activated by AICA riboside and phenformin in HeLa cells by expression of LKB1. Control HeLa cells (lanes 1, 2, 3), HeLa cells expressing wild type (WT) LKB1 (lanes 4, 5, 6) and kinase dead (D194A, KD) mutant LKB1 (lanes 7, 8, 9) were either left unstimulated or treated with 2 mM AICA riboside or 10 mM phenformin for 60 min and lysed. (A) Endogenous AMPK was immunoprecipitated from the cell extracts and assayed. (B) The cell lysates was immunoblotted with antibodies recognising AMPKα1 phosphorylated at Thr172 or total AMPKα1; the results were analysed using the LI-COR IR Odyssesy™ imager as described under Materials and Methods, and are expressed as a ratio of the two signals. (C) The cell lysates was analysed by Western blotting and the membranes probed with antibodies recognising ACC phosphorylated at Ser-79, or streptavidin to determine total […]. The results were analysed using the LI-COR IR imager as for (B).
To analyse phosphorylation of ACC, samples were analysed by SDS-PAGE, transferred to nitrocellulose (BioRad) and incubated in Odyssey™ Blocking buffer containing 0.2% Tween-20 for 1 h. […] The membranes were scanned in two different channels using the Odyssey™ IR imager, the results quantified using Odyssey™ software and expressed as a ratio of the signal obtained with the pACC antibody to that obtained with streptavidin. […]

[2] = test system: AMPK-related kinases (NUAK2, QIK, QSK, SIK, MARK1, MARK2/3, MARK4); assay: Activity of endogenous AMPK-related kinases immunoprecipitated from MEFs after drug stimulation; assay type: cell-based, mouse; details: 1 h
Description: FIG. 27 Activity of AMPK-related kinases in LKB1+/+ and LKB1^−/− MEFs. LKB1^+/+ or LKB1^−/− MEFs were either left untreated (black bars) or stimulated with 10 mM phenformin (Phen, white bars) for 1 h. AMPKα1 and AMPK-related kinases were immunoprecipitated from the cell lysates, and in vitro kinase activity towards the AMARA peptide was measured as described in Materials and Methods (Example 4). To confirm equal expression of the kinases in each sample, cell lysates (AMPKα1, NUAK2, MARK2/3 and MARK4) or immunoprecipitated proteins (QIK, QSK, SIK and MARK1) were subjected to SDS-PAGE and western blot analysis. All AMPK-related kinases migrated with the expected molecular mass. In the case of AMPKα1, cell lysates were immunoblotted with a phospho Thr172 antibody (P-AMPK), that recognises the phosphorylated T-loop. […]
FIG. 28. […] AMPKα1/a2 and LKB1 were immunoprecipitated from the cell lysates, and in vitro kinase activity towards the AMARA and LKBtide peptides respectively, were measured as described in Materials and Methods (Example 4). […] AMPKα1 and the indicated AMPK-related kinases were immunoprecipitated from the cell lysates, and in vitro kinase activity towards the AMARA peptide measured as described in Materials and Methods. […]
Cell culture, stimulation and cell lysis. […] Protein concentrations were determined by the Bradford method with bovine serum albumin as the standard (Bradford, 1976). […]

SMILES | phosphorylation of downstream target ACC (Ser-79) [1] | activity of AMPK-related kinases ([2]; LKB1+/+ MEFs, 2 mM AICA riboside) | activity of AMPK-related kinases ([2]; MEFs, 10 mM phenformin)
NC(=O)c1ncn([C@@H]2O[C@H](CO)[C@@H](O)[C@H]2O)c1N [AICA riboside, 5-aminoimidazole-4-carboxamide (AICA) riboside] | larger effect than phenformin; also recorded: restored | failed to markedly activate | –
[H]/N=C(/N)N/C(=N/[H])NCCc1ccccc1 [phenformin] | restored | – | not significantly stimulated
